The source of these data is patent publication US20080031822A1, “Methods of modeling migraine pain and identifying candidate compounds for the treatment of migraine” (priority 2006, published 2008).

In assay [1] the test system is Male Sprague Dawley rats. In words: Dural inflammation migraine model, tactile hyperesthesia of the hindpaw (50% paw withdrawal threshold, von Frey filaments). The format is in vivo, rat.
Assay [2] deals with Male Sprague Dawley rats. In words: Dural inflammation migraine model, facial tactile hyperesthesia (50% facial response threshold, von Frey filaments). The format is in vivo, rat.

Consider `N[C@@H](CCC(=O)N[C@@H](CSN=O)C(=O)NCC(=O)O)C(=O)O` [SNOG, s-nitrosylglutathione], for which, in the assay with Male Sprague Dawley rats [1] (administered to the dura, results two hours after treatment (FIG. 4)), the “tactile hyperesthesia of the hindpaw after administration to the dura” value was “produced a tactile hyperesthesia effect similar to that induced by administration of the IM cocktail”.

For the molecule `CCCCN1CCCCC1C(=O)Nc1c(C)cccc1C` (stereo not shown) [bupivacaine], the “50% facial response threshold versus control rats with dural IM cocktail only” value with Male Sprague Dawley rats [2] (administered in the RVM thirty minutes after IM cocktail (FIGS. 7A-7B)) is “increase in facial response threshold”. Further, the “50% paw withdrawal threshold versus control rats with dural IM cocktail only” value with Male Sprague Dawley rats [1] (administered in the RVM thirty minutes after IM cocktail (FIG. 9A)) was “increase in paw withdrawal threshold”; with Male Sprague Dawley rats [1] (administered in the RVM two hours after IM cocktail (FIG. 9B)), “significant increase in test animal paw withdrawal threshold”.

Consider `CNS(=O)(=O)Cc1ccc2[nH]cc(CCN(C)C)c2c1` [sumatriptan], for which, in the assay on Male Sprague Dawley rats [2] (systemic administration thirty minutes after IM cocktail (FIGS. 6A-6B)), the “50% facial response threshold versus control rats with dural IM cocktail only” value is given as “increase in facial response threshold”. In addition, the “50% paw withdrawal threshold versus control rats with dural IM cocktail only” value with Male Sprague Dawley rats [1] (0.6 mg/kg s.c. ten minutes prior to IM cocktail (FIG. 8)) was “increase in paw withdrawal threshold”. In addition, in the assay with Male Sprague Dawley rats [1] (sumatriptan succinate subcutaneously 1 mg/kg five minutes prior to dural IM cocktail, results two hours after dural treatment (FIG. 10)), the “tactile hyperesthesia of the hindpaw induced by dural inflammation” value is recorded as “attenuates tactile hyperesthesia of the hindpaw”.
